From US6645715B1, “Artificial cornea” (University of Ottawa, priority 1998, dated 2003)

Columns and labels:
[1] = test system: human eye bank corneas; experiment: RT-PCR of gene expression in human eye bank corneas after SDS exposure; type: cell-based; conditions: 5% SDS in M199
Description: (§1) Reverse transcription-polymerase chain reaction (RT-PCR) was used to examine changes in expression of the above genes in corneal epithelial cell lines compared to primary cells, and in artificial corneas compared to human corneas from the eye bank after exposure to a detergent SDS. The cells were exposed to 0.02% SDS in M199 for 2 minutes. Corneas were treated with 5% SDS in M199. Controls were dosed with M199 only. RT-PCR was performed on RNA from cells and corneas obtained at different time points after injury. Semi-quantitative analyses were conducted by introducing the housekeeping gene, glyceraldehyde-3-phosphate dehydrogenase (GAPDH) as an internal control and by Southern analysis. PCR products were sequenced to confirm their identity.

[2] = test system: reconstructed corneas; experiment: Responses of reconstructed corneas to aqueous test chemicals (wound, corneal transparency); type: cell-based, human; conditions: 10% SDS, 0.01% benzalkonium chloride solution
Description: Each cornea was exposed centrally to 100 μl of the test chemical for 10 min, after which the chemical was washed off with saline and the corneas were re-cultured for a further 3 days. The saline-treated cornea served as the control.

[3] = test system: reconstructed corneas; experiment: RT-PCR of gene expression in SDS-treated reconstructed corneas; type: cell-based, human; conditions: 5% SDS in M199; reconstructed whole corneas
Description: as §1, with “Band intensities for the indicated genes were quantitated by a phosphoimager and were divided by the intensity of the corresponding GAPDH band. Corneas were treated with 5% SDS in medium for 1 or 3 minutes, then washed twice with medium. Total RNA was extracted at 1 hour after the SDS treatment, and RT-PCR was carried out for specific primers for various genes. Reverse” for “Reverse”, “identity. […] However, these changes were more marked in the reconstructed whole corneas than in the epithelial monolayers.” for “identity.”

[4] = test system: reconstructed corneas; experiment: Live-dead staining of reconstructed corneas after chemical exposure; type: cell-based, human; conditions: SDS; 0.01% benzalkonium chloride solution
From the text: Live cells are green, while dying or dead cells are orange-red. […] C.

[5] = test system: corneal epithelial cell lines and primary epithelial cells; experiment: RT-PCR of mRNA expression in corneal epithelial cells after SDS exposure; type: cell-based, human
From the text: Corneal epithelial cell lines were exposed to sodium dodecyl sulfate (SDS) to characterise the changes in mRNA expression of early response genes such as c-fos and c-jun, cytokines probably involved with corneal wound healing such as interleukins (IL-1a and IL-6), basic fibroblast growth factor (bFGF), vascular endothelial growth factor (VEGF) and epidermal growth factor (EGF), and matrix molecules that are elaborated during healing such as collagens types I, III and V. Reverse transcription-polymerase chain reaction (RT-PCR) was used to examine changes in expression of the above genes in corneal epithelial cell lines compared to primary cells, and in artificial corneas compared to human corneas from the eye bank after exposure to a detergent SDS. The cells were exposed to 0.02% SDS in M199 for 2 minutes. Corneas were treated with 5% SDS in M199. Controls were dosed with M199 only. RT-PCR was performed on RNA from cells and corneas obtained at different time points after injury. Semi-quantitative analyses were conducted by introducing the housekeeping gene, glyceraldehyde-3-phosphate dehydrogenase (GAPDH) as an internal control and by Southern analysis. PCR products were sequenced to confirm their identity. Baseline levels of the 10 mRNAs examined were established in control epithelial cells and corneas (n> or =6 for each time point). […] However, changes in MRNA expression for bFGF, VEGF, EGF and collagen III were non-significant.

[6] = 0.02% SDS in M199 for 2 minutes, within 1 hour of injury, primary epithelial cells and cell lines

CCCCCCCCCCCCOS(=O)(=O)[O-].[Na+] [SDS, sodium dodecyl sulfate]
changes in gene expression [1]: responded to SDS exposure with changes in gene expression
wound / change of corneal transparency ([2]; 100 μl centrally for 10 min, washed off with saline, re-cultured 3 days): caused wounds to the centre of the cornea
healing of the wound ([2]; 100 μl for 10 min, re-cultured a further 3 days): still unhealed
extent of changes in gene expression versus epithelial monolayers [3]: more marked
live-dead staining, epithelial cells [4]: mostly dead and dying cells
live-dead staining, stromal cells [4]: orange-red dead or dying cells
penetration into the stromal compartment [4]: penetration of the detergent into the stroma
IL-1a mRNA expression ([5]; 0.02% SDS for 2 minutes): increased expression
IL-6 mRNA expression ([5]; 0.02% SDS for 2 minutes): increased expression
changes in mRNA expression for EGF ([5]; 0.02% SDS for 2 minutes): non-significant
changes in mRNA expression for VEGF ([5]; 0.02% SDS for 2 minutes): non-significant
changes in mRNA expression for bFGF ([5]; 0.02% SDS for 2 minutes): non-significant
changes in mRNA expression for collagen III ([5]; 0.02% SDS for 2 minutes): non-significant
collagen I mRNA expression ([5]; 0.02% SDS for 2 minutes): increased expression
collagen V mRNA expression ([5]; 0.02% SDS for 2 minutes): increased expression
expression of c-fos, time course ([5]; 0.02% SDS for 2 minutes, 24 hours): returned to baseline levels by the end of 24 hours
expression of c-jun, time course ([5]; 0.02% SDS for 2 minutes, until day 6): remained high until day 6 after injury
expression of c-fos [5, 6]: significantly increased
expression of c-jun [5, 6]: significantly increased
